≈ marks a conversion by molar mass, not a printed value. Like-named read-outs stand apart in the source and are kept apart here.
Experiments:
BK virus = assay: microbe, parasite or virus in culture; format: cell-based; conditions: Betapolyomavirus hominis
HIV-1 isolate 4736_4 = assay: microbe, parasite or virus in culture; conditions: Human immunodeficiency virus 1, PBMC
DENV-1 = assay: Virus yield reduction assay by qRT-PCR in Vero cells; format: cell-based; conditions: Dengue virus, DENV1, Vero, 48 h, read-out: Antiviral Activity IC50
three JUNV strains = assay: microbe, parasite or virus in culture; conditions: Mammarenavirus juninense, read-out: EC50 values, range depending on the virus strain and the host cell
JUNV strain IV4454 [1] = assay: microbe, parasite or virus in culture; conditions: Mammarenavirus juninense, A549, 48 h
JUNV strain XJCl3 = assay: microbe, parasite or virus in culture; conditions: Mammarenavirus juninense, A549, 48 h
JUNV strain Candid-1 [2] = assay: microbe, parasite or virus in culture; conditions: Mammarenavirus juninense, A549, 48 h
HIV-1 isolate 1022-48 = assay: microbe, parasite or virus in culture; conditions: Human immunodeficiency virus 1, PBMC
[3] = test system: arenavirus Tacaribe (TCRV), strain TRLV11573; assay: microbe, parasite or virus in culture; format: cell-based, Tacaribe virus; conditions: A549
in vitro = conditions: African green monkey
JUNV strain IV4454 [4] = assay: microbe, parasite or virus in culture; conditions: Mammarenavirus juninense, Vero, 48 h
CHIKV 899 wild-type = assay: Chikungunya virus-induced cell death (CPE, MTS/PMS) assay in Vero A cells
HIV-1 isolate MDR769 = assay: microbe, parasite or virus in culture; conditions: Human immunodeficiency virus 1, PBMC
HIV-1 isolate A17 = assay: microbe, parasite or virus in culture; conditions: Human immunodeficiency virus 1, PBMC
Norovirus = assay: microbe, parasite or virus in culture; format: cell-based
HIV-2 CBL20 H9 = assay: microbe, parasite or virus in culture; conditions: Human immunodeficiency virus 2, PBMC
JUNV strain Candid-1 [5] = assay: microbe, parasite or virus in culture; conditions: Mammarenavirus juninense, Vero, 48 h
Vaccinia = assay: microbe, parasite or virus in culture; format: cell-based; conditions: Orthopoxvirus vaccinia
[6] = long term oral exposures up to 33 weeks; cited from earlier work
DENV-4 = assay: Virus yield reduction assay by qRT-PCR in Vero cells; format: cell-based; conditions: Dengue virus, DENV4, Vero, 48 h, read-out: Antiviral Activity IC50
RHDV isolate Ast/89 = assay: Treatment of rabbits infected with RHDV; format: in vivo, New Zealand white rabbits
Description: Nine-week-old New Zealand white rabbits in a climatized room at 21° C., with a 12 h light cycle in accordance with the experimental design shown in Table 9 and provided standard dry rabbit food and water ad libitum. For survival studies, 14 animals were injected intramuscularly with 2×10^4 hemagglutination units of RHDV isolate Ast/89 and six of them treated with AR-12 (25 mg/Kg body weight) at 0, 12, 24 and 36 hours post infection ([…]). Animals in those groups were left to die spontaneously.

Human cytomegalovirus = assay: microbe, parasite or virus in culture; format: cell-based; conditions: Human betaherpesvirus 5
DENV-3 = assay: Virus yield reduction assay by qRT-PCR in Vero cells; format: cell-based; conditions: Dengue virus, DENV3, Vero, 48 h, read-out: Antiviral Activity IC50
A/Udorn/72 (H3N2) = assay: microbe, parasite or virus in culture; format: cell-based; conditions: Influenza A virus, H3N2, HEK-293T; read-out: EC50
A/Ca/07/09 (H1N1) = assay: microbe, parasite or virus in culture; format: cell-based; conditions: Influenza A virus, H1N1, HEK-293T; read-out: EC50
Vero cells = conditions: African green monkey
Rabies Virus = assay: microbe, parasite or virus in culture; format: cell-based; conditions: Lyssavirus rabies
Varicella-zoster virus = assay: microbe, parasite or virus in culture; format: cell-based; conditions: Human alphaherpesvirus 3
[7] = Cytotoxicity (CC50) in the in vitro viral screen; format: cell-based; conditions: African green monkey, MA-104 cells; listed as Respiratory Syncytial Virus A2; visual
Excerpt: (§1) The results of an exemplary in vitro screen of the activity of AR-12 against various viruses is summarized below.

MA-104 = assay: Cytotoxicity (CC50) in the in vitro viral screen; format: cell-based; conditions: listed as Respiratory Syncytial Virus A2; neutral red
Excerpt: as §1

HIV-1 92HT599 = assay: microbe, parasite or virus in culture; conditions: Human immunodeficiency virus 1, PBMC
[8] = 25 mg/Kg ip, after about 36 hours post infection, versus RHDV

NCC(=O)Nc1ccc(-n2nc(C(F)(F)F)cc2-c2ccc3c(ccc4ccccc43)c2)cc1 [AR-12, 2-amino-N-(4-(5-(phenanthren-2-yl)-3-(trifluoromethyl)-1H-pyrazol-1-yl)phenyl)acetamide]
EC50 (BK virus): > 2.4 µM | EC90 (BK virus): > 2.4 µM | IC90 (HIV-1 isolate 4736_4): 0.762 µM | IC90 (HIV-1 isolate 4736_4; read-out: IC50): 2.25 µM | IC50 (DENV-1): 0.64 µM | IC50 (HIV-2 CDC 310319): 0.37 µM | EC50 (three JUNV strains): 0.15 to 0.55 µM | EC50 (JUNV strain IV4454 [1]): 0.55 ± 0.05 µM | EC50 (JUNV strain XJCl3): 0.55 ± 0.05 µM | EC50 (JUNV strain Candid-1 [2]): 0.15 ± 0.02 µM | IC90 (HIV-1 isolate 1022-48): 0.489 µM | IC90 (HIV-1 isolate 1022-48; read-out: IC50): 3.68 µM | EC50 [3]: 0.84 ± 0.02 µM | CC50 (in vitro; CC50 (Neutral Red)): 1.8 µg/mL (≈ 3.91 µM) | CC50 (in vitro; CC50 (neutral red)): 2.4 µg/mL (≈ 5.21 µM) | CC50 (in vitro; CC50 (visual)): 2.8 µg/mL (≈ 6.08 µM) | EC50 (JUNV strain IV4454 [4]): 0.51 ± 0.05 µM | selectivity index (CHIKV 899 wild-type; CC50/EC50, wild-type ChikV): 5.8 | EC50 (CHIKV 899 wild-type; Chikungunya virus, Vero, read-out: EC50 WT): 1.1 ± 0.5 µM | IC90 (HIV-1 isolate MDR769): 0.848 µM | IC90 (HIV-1 isolate MDR769; read-out: IC50): 3.82 µM | IC90 (HIV-1 isolate A17): 0.914 µM | IC90 (HIV-1 isolate A17; read-out: IC50): 6.64 µM | EC50 (Norovirus): 0.718 µM | EC90 (Norovirus): 8.1 µM | IC50 (HIV-2 CBL20 H9): 0.51 µM | EC50 (JUNV strain Candid-1 [5]): < 0.15 µM | EC50 (Vaccinia): > 2.4 µM | EC90 (Vaccinia): > 2.4 µM | safety profile [6]: acceptable safety profile | IC50 (DENV-4): 0.89 µM | survival rates of infected rabbits increased (RHDV isolate Ast/89; 25 mg/Kg ip each 12 hours, at least about 24 hours post infection, p<0.05 Fisher test): about 20% | level of marker of liver toxicity ALT (Alanine transaminase) (RHDV isolate Ast/89; [8]): decreased | level of marker of liver toxicity AST (Aspartate transaminase) (RHDV isolate Ast/89; [8]): decreased | level of marker of liver toxicity GGT (gamma-glutamyl transferase) (RHDV isolate Ast/89; [8]): decreased | level of marker of liver toxicity LDH (lactate dehydrogenase) (RHDV isolate Ast/89; [8]): decreased | EC50 (Human cytomegalovirus): > 2.4 µM | EC90 (Human cytomegalovirus): > 2.4 µM | IC50 (DENV-3): 0.6 µM | EC50 (A/Udorn/72 (H3N2)): 0.33 µM | EC50 (A/Ca/07/09 (H1N1)): 0.37 µM | MNTD (Vero cells): > 10 µM | EC50 (Rabies Virus): 2.61 µM | EC50 (Varicella-zoster virus): 1.15 µM | EC90 (Varicella-zoster virus): 1.68 µM | CC50 [7]: 3.2 µg/mL (≈ 6.95 µM) | CC50 (neutral red) (MA-104): 3.2 (visual), 3.2 | IC50 (HIV-1 92HT599): 0.27 µM
